Assay results: US8754132B2 (The Board of Trustees of the University of Illinois, priority 2010, dated 2014)
Where “and” joins values, the source holds several entries; their conditions need not be identical. Equal values may be shown once. Where a name gives a salt, the structure may show the parent alone. Read-outs that look alike come from different tables or passages of the source.

Assays:
[1] = molecular target: T1, 5-HT(2B) receptor (Homo sapiens, UniProt P41595); assay: Calcium flux assay, stably transfected HEK-293 cells, 5-HT2B; format: cell-based; parameters: expressed in transfected cells; details: for 5-HT2B % Max ± SEM: percent of maximal activation by 5-HT, activation at 10 μM for compounds without EC50 value
[2] = molecular target: T2, 5-HT(2A) receptor (Homo sapiens, UniProt P28223); assay: cell-based; format: cell-based; parameters: expressed in transfected cells; details: for 5-HT2A % Max ± SEM: percent of maximal activation by 5-HT, activation at 10 μM for compounds without EC50 value
[3] = molecular target: T3, human 5-HT(2C) (INI) receptor (Homo sapiens, UniProt P28335); assay: Calcium flux assay, stably transfected HEK-293 cells, 5-HT2C; format: cell-based; details: for 5-HT2C % Max ± SEM: percent of maximal activation by 5-HT; for Emax 2C/2A / Emax 2C/2B: Emax ratio
T3 construct: expressed in transfected cells
T3 sequence (P28335 33-458): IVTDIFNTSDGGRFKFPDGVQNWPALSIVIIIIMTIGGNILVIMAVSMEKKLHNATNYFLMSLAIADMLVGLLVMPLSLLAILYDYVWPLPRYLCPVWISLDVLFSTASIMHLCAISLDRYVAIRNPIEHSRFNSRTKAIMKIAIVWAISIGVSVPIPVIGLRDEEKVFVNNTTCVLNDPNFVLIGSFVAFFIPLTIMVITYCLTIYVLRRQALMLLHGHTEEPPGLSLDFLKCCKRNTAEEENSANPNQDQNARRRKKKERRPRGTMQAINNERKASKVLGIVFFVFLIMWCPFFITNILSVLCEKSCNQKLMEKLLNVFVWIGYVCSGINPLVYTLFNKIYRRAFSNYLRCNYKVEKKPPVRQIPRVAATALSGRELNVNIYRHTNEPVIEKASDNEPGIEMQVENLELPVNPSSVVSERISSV

[4] = molecular target: T1, 5-HT(2B) receptor; assay: 5-HT(2B) antagonism, shift of 5-HT concentration curve in calcium flux experiments, Schild analysis
[5] = Stability in liver microsomes, human; format: in vitro ADME; details: NADPH, 37° C.
[6] = molecular target: CYP3A4 (Homo sapiens, UniProt P08684); assay: Recombinant CYP inhibition, CYP3A4; format: in vitro ADME; details: recombinant enzyme, read-out: % Inhibition at 10 μM, CYP 3A4
[7] = tested on: PCP-disrupted PPI in mice; assay: Prepulse inhibition (PPI) animal study, PCP-disrupted PPI; details: PCP 6 mg/kg i.p.
[8] = molecular target: CYP2C9 (Homo sapiens, UniProt P11712); assay: Recombinant CYP inhibition, CYP2C9; format: in vitro ADME; details: recombinant CYP2C9, probe tolbutamide, substrate tolbutamide, recombinant enzyme, read-out: % Inhibition at 10 μM, CYP 2C9
[9] = molecular target: CYP2D6 (Homo sapiens, UniProt P10635); assay: Recombinant CYP inhibition, CYP2D6; format: in vitro ADME; details: recombinant CYP2D6, probe dextromethorphan, substrate dextromethorphan, recombinant enzyme, read-out: % Inhibition at 10 μM, CYP 2D6
[10] = Stability in liver microsomes, rat; format: in vitro ADME; details: NADPH, 37° C.
Method: Stability in Liver Microsomes. For each sample to be investigated, the following was mixed: microsomes (50 μL, 0.5 mg/mL), MgCl2 solution (50 μL, 50 mM), phosphate buffer (250 μL, 100 mM), water (95 μL), test compound (+)-12 (5 μL, 200 μM). Verapamil was tested as a positive control. The reaction was performed at 37° C. and initiated by the addition of NADPH (50 μL, 10 mM) or, for the negative control, by the addition of water (50 μL). Aliquots of 50 μL were taken form the solution after 0, 15, 30, 45, and 60 minutes and the reaction stopped by the addition of 150 μL cold methanol to the aliquot. The samples were centrifuged (16000 rpm, 10 min). 100 μL supernatant was used for LC-MS-MS investigation. All incubations were performed in duplicate. Separation of the sample components was performed on a Waters ACQUITY UPLC C18 (2.1 mm×50 mm) column, using mobile phase mixtures between 0.1% formic acid in MeCN and 0.1% formic acid in water (elution rate 0.5 mL/min, column temperature 25° C.). […] The in vitro intrinsic clearance (in vitro CLint) was calculated according to: in vitro CLint=(0.693/t1/2)×(volume of incubation (μL)/amount of proteins (mg)).

[11] = 10-60 mg/kg, behavioral assay, reference (15); cited from earlier work
[12] = molecular target: T2, 5-HT(2A) receptor; assay: Modulation of 5-HT(2) family receptors, Table 1, 2A Receptor; format: cell-based; details: for 2A Receptor ED50: NA = No activity
[13] = molecular target: T4, 5-HT(2C) receptor (Homo sapiens, UniProt P28335); assay: Modulation of 5-HT(2) family receptors, Table 1, 2C Receptor; format: cell-based
T4 sequence (P28335 33-458): T3 sequence (P28335 33-458)

[14] = molecular target: T1, 5-HT(2B) receptor; assay: Modulation of 5-HT(2) family receptors, Table 1, 2B Receptor; format: cell-based; details: for 2B Receptor ED50: NA = No activity
[15] = 5-HT2C EC50 ± SEM, Table 2, second section
[16] = Table 2, second section, read-out: 5-HT2C EC50 ± SEM
[17] = Table 2, second section, EC50 ratio

T2 sequence (P28223 whole entry): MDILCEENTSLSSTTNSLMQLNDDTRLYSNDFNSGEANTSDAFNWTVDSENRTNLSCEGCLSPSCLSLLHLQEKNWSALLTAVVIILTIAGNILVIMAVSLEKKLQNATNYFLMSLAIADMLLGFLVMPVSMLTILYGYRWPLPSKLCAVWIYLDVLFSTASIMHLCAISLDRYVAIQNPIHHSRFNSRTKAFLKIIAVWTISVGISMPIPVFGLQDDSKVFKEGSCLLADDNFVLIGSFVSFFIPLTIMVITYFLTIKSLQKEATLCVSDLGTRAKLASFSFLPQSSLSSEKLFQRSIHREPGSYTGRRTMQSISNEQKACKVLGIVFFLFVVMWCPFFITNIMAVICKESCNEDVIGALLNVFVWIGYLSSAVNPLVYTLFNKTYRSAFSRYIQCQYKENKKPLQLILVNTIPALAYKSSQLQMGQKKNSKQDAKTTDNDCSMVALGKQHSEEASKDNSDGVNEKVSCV
T1 sequence (P41595 whole entry): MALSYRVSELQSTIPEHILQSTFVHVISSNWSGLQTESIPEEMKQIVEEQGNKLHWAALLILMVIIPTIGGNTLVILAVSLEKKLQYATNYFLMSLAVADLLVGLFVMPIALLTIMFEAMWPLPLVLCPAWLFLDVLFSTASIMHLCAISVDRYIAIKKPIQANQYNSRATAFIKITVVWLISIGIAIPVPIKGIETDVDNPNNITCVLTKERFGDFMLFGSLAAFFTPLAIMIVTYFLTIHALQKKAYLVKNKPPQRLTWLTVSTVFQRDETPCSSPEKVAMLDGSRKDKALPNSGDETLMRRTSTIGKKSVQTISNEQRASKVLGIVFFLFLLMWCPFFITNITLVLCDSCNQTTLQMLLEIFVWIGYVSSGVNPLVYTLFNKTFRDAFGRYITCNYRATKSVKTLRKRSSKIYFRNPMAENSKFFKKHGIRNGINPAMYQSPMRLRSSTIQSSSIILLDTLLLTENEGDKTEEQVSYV
CYP2C9, sequence (P11712 whole entry): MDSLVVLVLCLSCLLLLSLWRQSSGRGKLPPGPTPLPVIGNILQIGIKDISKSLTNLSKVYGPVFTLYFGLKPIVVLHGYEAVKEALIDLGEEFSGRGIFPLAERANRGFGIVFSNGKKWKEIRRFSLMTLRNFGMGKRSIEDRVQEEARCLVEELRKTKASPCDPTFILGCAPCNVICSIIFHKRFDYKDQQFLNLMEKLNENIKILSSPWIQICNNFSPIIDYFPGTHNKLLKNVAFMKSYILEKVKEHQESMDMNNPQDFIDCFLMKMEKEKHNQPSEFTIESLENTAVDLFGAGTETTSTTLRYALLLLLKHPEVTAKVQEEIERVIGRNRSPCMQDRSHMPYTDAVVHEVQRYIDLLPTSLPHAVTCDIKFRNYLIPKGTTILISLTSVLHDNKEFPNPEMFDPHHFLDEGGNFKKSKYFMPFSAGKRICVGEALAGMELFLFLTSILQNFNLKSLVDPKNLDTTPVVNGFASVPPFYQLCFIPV
CYP3A4, sequence (P08684 whole entry): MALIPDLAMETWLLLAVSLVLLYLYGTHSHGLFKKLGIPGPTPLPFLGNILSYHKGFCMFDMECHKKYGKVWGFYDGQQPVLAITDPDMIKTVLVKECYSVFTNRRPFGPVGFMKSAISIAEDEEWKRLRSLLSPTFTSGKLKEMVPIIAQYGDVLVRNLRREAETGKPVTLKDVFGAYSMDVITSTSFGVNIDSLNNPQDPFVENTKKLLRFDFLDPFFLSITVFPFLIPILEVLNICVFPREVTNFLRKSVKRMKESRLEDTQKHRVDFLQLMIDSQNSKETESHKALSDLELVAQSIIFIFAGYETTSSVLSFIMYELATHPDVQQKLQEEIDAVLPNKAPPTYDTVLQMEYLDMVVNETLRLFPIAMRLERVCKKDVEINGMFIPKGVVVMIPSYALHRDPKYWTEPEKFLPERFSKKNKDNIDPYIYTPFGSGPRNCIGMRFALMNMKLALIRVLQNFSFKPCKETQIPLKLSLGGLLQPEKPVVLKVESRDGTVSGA
CYP2D6, sequence (P10635 whole entry): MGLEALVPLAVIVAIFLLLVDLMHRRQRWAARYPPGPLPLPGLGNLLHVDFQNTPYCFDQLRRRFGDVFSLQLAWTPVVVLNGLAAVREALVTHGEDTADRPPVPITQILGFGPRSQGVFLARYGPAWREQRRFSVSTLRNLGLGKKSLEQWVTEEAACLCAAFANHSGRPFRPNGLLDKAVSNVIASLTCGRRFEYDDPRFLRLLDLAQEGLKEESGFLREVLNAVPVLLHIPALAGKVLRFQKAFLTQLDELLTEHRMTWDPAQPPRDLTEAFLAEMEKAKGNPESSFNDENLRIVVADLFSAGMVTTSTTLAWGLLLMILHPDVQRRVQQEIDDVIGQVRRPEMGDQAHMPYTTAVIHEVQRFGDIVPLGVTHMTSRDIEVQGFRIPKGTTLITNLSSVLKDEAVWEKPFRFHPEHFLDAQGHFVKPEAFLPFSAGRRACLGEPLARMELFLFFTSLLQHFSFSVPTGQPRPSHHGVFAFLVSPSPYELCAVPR

Cl.NC[C@@H]1C[C@H]1c1cc(F)ccc1OCC1CC1 (racemic) [Compound 12, trans-[2-(2-Cyclopropylmethyloxy-5-fluorophenyl)cyclopropyl]methylamine Hydrochloride]
5-HT2B % Max ± SEM ([1]; Table 2, first section): 2% ±
5-HT2A % Max ± SEM ([2]; Table 2, first section): 11% ±
EC50 ([2]; read-out: 5-HT2A EC50 ± SEM): 761 nM
EC50 ([3]; EC50 at the 5-HT(2C) receptor, running text b178, functional assays): 254 nM
Selectivity 2A/2C ([3]; Table 2, first section, EC50 ratio): 77
5-HT2C % Max ± SEM ([3]; Table 2, first section): 68% ±
EC50 ([3]; Table 2, first section, read-out: 5-HT2C EC50 ± SEM): 9.9 nM

Cl.NC[C@@H]1C[C@H]1c1cc(O)ccc1OCC1CC1 (racemic) [Compound 18, trans-[2-(2-Cyclopropylmethyloxy-5-hydroxyphenyl)cyclopropyl]methylamine Hydrochloride]
5-HT2B % Max ± SEM ([1]; Table 2, first section): 6% ±
5-HT2A % Max ± SEM ([2]; Table 2, first section): 7% ±
EC50 ([3]; 5-HT2C EC50 ± SEM, Table 2, first section): 19 nM
5-HT2C % Max ± SEM ([3]; Table 2, first section): 68% ±

NC[C@@H]1C[C@H]1c1cc(F)ccc1OCC1CC1 (relative stereo) [Compound 12, trans-[2-(2-Cyclopropylmethyloxy-5-fluorophenyl)cyclopropyl]methylamine Hydrochloride]
activation of the 5-HT(2B) receptor (in words) ([1]; functional assays): not to activate
activation of the 5-HT(2A) receptor (in words) ([2]; functional assays): not to activate
Emax 2C/2A ([3]; Table 2, first section): 6.2
Emax 2C/2B ([3]; Table 2, first section): 38

NC[C@@H]1C[C@H]1c1cc(O)ccc1OCC1CC1 (relative stereo) [Compound 18, trans-[2-(2-Cyclopropylmethyloxy-5-hydroxyphenyl)cyclopropyl]methylamine Hydrochloride]
Emax 2C/2A ([3]; Table 2, first section): 9.4
Emax 2C/2B ([3]; Table 2, first section): 12

NCC1CC1c1cc(O)ccc1OCC1CC1 (single isomer, unassigned; (-)) [(−)-18]
5-HT2B % Max ± SEM ([1]; Table 2, second section): 0% ±
5-HT2A % Max ± SEM ([2]; Table 2, second section): 3% ±
EC50 [3, 15]: 361 nM
Emax 2C/2A ([3]; Table 2, second section): 19
Emax 2C/2B ([3]; Table 2, second section): >>
5-HT2C % Max ± SEM ([3]; Table 2, second section): 51% ±

C[C@H]1CNCCc2ccc(Cl)cc21 [2 (Lorcaserin), Lorcaserin, reference compound]
5-HT2B % Max ± SEM ([1]; Table 2, first section): 93% ±
5-HT2B % Max ± SEM ([1]; Table 2, second section): 86% ±
5-HT2A % Max ± SEM ([2]; Table 2, first section): 24% ±
5-HT2A % Max ± SEM ([2]; Table 2, second section): 31% ±
agonist potency at the 5-HT(2C) receptor (in words) [3]: low nM potency
5-HT2C % Max ± SEM ([3]; Table 2, first section): 99% ±
5-HT2C % Max ± SEM ([3]; Table 2, second section): 94% ±

NCC1CC1c1cc(F)ccc1OCC1CC1 [(+)-12, (+)-trans-(S,S)-[2-(2-Cyclopropylmethyloxy-5-fluorophenyl)cyclopropyl]methylamine Hydrochloride]
EC50 ([1]; Table 2, second section, NA: Emax ≦ 12%, read-out: 5-HT2B EC50 ± SEM): 289 nM
Kb [4]: 3160 nM
EC50 ([2]; Table 2, second section (second screening campaign), NA: Emax ≦ 12%, read-out: 5-HT2A EC50 ± SEM): 894 nM
EC50 [3, 16]: 21 nM

NC[C@H]1C[C@@H]1c1cc(F)ccc1OCC1CC1 [(+)-12, (+)-trans-(S,S)-[2-(2-Cyclopropylmethyloxy-5-fluorophenyl)cyclopropyl]methylamine Hydrochloride]
Microsomal stability (% remaining), human [5]: 90.50%
inhibition at 5 min, 10 µM ([6]; recombinant CYP3A4, probe midazolam, substrate midazolam): 21.7%
inhibition at 5 min, 10 µM ([6]; recombinant CYP3A4, probe testosterone, substrate testosterone): 25.1%
normalization of PCP-disrupted PPI ([7]; 5 mg/kg dose level): still effective
normalization of PCP-disrupted PPI ([7]; 10 mg/kg): able to normalize PCP-disrupted PPI
inhibition at 20 min, 10 µM [8]: 19.6%
5-HT2B % Max ± SEM ([1]; Table 2, second section): 21% ±
inhibition at 20 min, 10 µM [9]: 27%
Microsomal stability (% remaining), rat [10]: 66.03%
5-HT2A % Max ± SEM ([2]; Table 2, second section): 29% ±
Selectivity 2A/2C [3, 17]: 42
Selectivity 2B/2C [3, 17]: 14
Emax 2C/2A ([3]; Table 2, second section): 2.5
Emax 2C/2B ([3]; Table 2, second section): 3.4
5-HT2C % Max ± SEM ([3]; Table 2, second section): 71% ±

NC[C@H]1C[C@@H]1c1cc(O)ccc1OCC1CC1 [(+)-18, (+)-trans-(S,S)-[2-(2-Cyclopropylmethyloxy-5-hydroxyphenyl)cyclopropyl]methylamine Hydrochloride]
normalization of PCP-disrupted PPI ([7]; 10 mg/kg): able to normalize PCP-disrupted PPI
5-HT2B % Max ± SEM ([1]; Table 2, second section): 6% ±
pA2 (±SEM), Schild analysis ([4]; 5-HT(2B) antagonism against 5-HT, calcium flux, n=3): 5.79±0.07
EC50 ([2]; 5-HT2A EC50 ± SEM, Table 2, second section (second screening campaign), NA: Emax ≦ 12%): 372 nM
5-HT2A % Max ± SEM ([2]; Table 2, second section): 18% ±
EC50 [3, 15]: 9.3 nM
Selectivity 2A/2C [3, 17]: 40
Emax 2C/2A ([3]; Table 2, second section): 3.9
Emax 2C/2B ([3]; Table 2, second section): 11
5-HT2C % Max ± SEM ([3]; Table 2, second section): 70% ±

Cc1cccc(C2CC2CN)c1 (stereo not shown) [Compound 1]
antidepressant-like effects [11]: moderate antidepressant-like effects

NCCc1c[nH]c2ccc(O)cc12 [Compound 5-HT, 5-Hydroxytryptamine, reference compound]
5-HT2A % Max ± SEM ([2]; Table 2, first section): 100%
5-HT2A % Max ± SEM ([2]; Table 2, second section): 100% ±

Cl.NCC1CC1c1ccccc1CCC1CC1 (stereo not shown) [Compound 50]
2A Receptor ED50 [12]: no activity
2C Receptor Emax [13]: 35 and 60
2B Receptor ED50 [14]: no activity

Cl.NCC1CC1c1cc(Br)ccc1CCC1CC1 (stereo not shown) [Compound 51]
2A Receptor ED50 [12]: no activity
2C Receptor Emax [13]: 92
2B Receptor ED50 [14]: no activity

Cc1ccc(CCC2CC2)c(C2CC2CN)c1.Cl (stereo not shown) [Compound 52]
2A Receptor Emax [12]: 47
2C Receptor Emax [13]: 98
2B Receptor Emax [14]: 35

CC(C)c1ccc(CCC2CC2)c(C2CC2CN)c1.Cl (stereo not shown) [Compound 53]
2A Receptor Emax [12]: 92
2C Receptor Emax [13]: 93
2B Receptor Emax [14]: 66

Nc1ccc(S(=O)(=O)Nc2ccnn2-c2ccccc2)cc1 [sulfaphenazole, reference compound]
inhibition at 20 min, 10 µM [8]: 94.7%

trans-[2-(2-cyclopropylmethyloxy-5-fluorophenyl)cyclopropyl]-methylamine hydrochloride [(−)-12]
5-HT2B % Max ± SEM ([1]; Table 2, second section): 4% ±
5-HT2A % Max ± SEM ([2]; Table 2, second section): 0% ±
Emax 2C/2A ([3]; Table 2, second section): >>
Emax 2C/2B ([3]; Table 2, second section): 8.0
5-HT2C % Max ± SEM ([3]; Table 2, second section): 35% ±
EC50 [3, 16]: 918 nM
EC50 ([3]; read-out: EC50 in the 5-HT(2C) assay, running text b178): ~2400 nM
